Reference: patent US20100016232A1, “Treatment Of Inflammatory Diseases With Mammal Beta Defensins” (Novozymes A/S, priority 2008, published 2010)
Where no end group is shown, it is not given here.

Test system: TNF-alfa secretion from PBMC
Experiment: TNF-alfa secretion from PBMC, ELISA
Assay type: cell-based, human
Experimental: Peripheral blood was drawn from healthy volunteers (with approval from the relevant ethical committee in Denmark). Heparinized blood was diluted 1/1 v/v with RPMI and were subjected to Ficoll density centrifugation within 2 h of drawing. Plasma was collected from the top from individual donors and was kept on ice until it was used at 2% in the culture medium (autologous culture medium). Isolated PBMC were resuspended in autologous culture medium and seeded in 96-well culture plates with 255.000 cells per well in a total of 200 μl. […] The concentrations used for stimulation were optimized on 3 different donors in initial experiments, for LPS two different concentrations were used to be sure to be on a cytokine level that is possible to modulate. In some experiments PBMC were treated with Dexamethason and Indomethacin alone and together with LPS or LTA as a control on downregulation of inflammatory cytokines. The supernatants were collected after incubation at 37° C. for 24 hours, and stored at −80° C. until cytokine measurement. Viability was measured by Alamar Blue (Biosource, DALL 1100) in all experiments and in some cases also by MTS (Promega) according to manufacturer's instruction and was in some experiments also judged by counting of the cells by a Nucleocounter.
Cytokine production in supernatants was measured by flow cytometry with a human inflammation cytometric bead array (CBA) according to manufacturer's instructions (BD) on a FACSarray flow cytometer. The following cytokines were measured: IL-8, IL-1β, IL-10, TNF, IL-12 p70, IL-6. In some experiments, cytokines were measured by ELISA kits from R&D systems (IL-10, TNF-α, IL-1β) according to the manufacturer' instruction.
In Tables 6, 7 and 8, supernatants from another donor were analysed for cytokines by ELISA instead of by a cytometric bead array by flowcytometry and here the same were observed, although the sensitivity of the assay is lower and the detection limit much higher and therefore the effects were not as significant.

Question: Which TNF-α (LPS 0.6 ng/ml, hBD2 1 μg/ml) does the source give for “hBD2: human beta defensin 2, SEQ ID NO:2; produced recombinantly in E. coli (Example 1); hBD2 of Tables 16-18 was prepared by chemical synthesis (GIGDPVTCLKSGAICHPVFCPRRYKQIGTCGLPGTKCCKKP; ends and bridges not checked; cysteine pairing not given here; listed as Homo sapiens)” here?
Answer: 0.70 ng/mL

Question: What about the TNF-α (LPS 0.6 ng/ml, hBD2 10 μg/ml) of the same substance?
Answer: 0.59 ng/mL

Question: What about the TNF-α (LPS 0.6 ng/ml, hBD2 100 μg/ml) of the same substance?
Answer: 0.41 ng/mL

Question: And the TNF-α (LPS 20 ng/ml, hBD2 1 μg/ml)?
Answer: 1.18 ng/mL

Question: What about the TNF-α (LPS 20 ng/ml, hBD2 10 μg/ml) of the same substance?
Answer: 0.49 ng/mL

Question: What about the TNF-α (LPS 20 ng/ml, hBD2 100 μg/ml) of the same substance?
Answer: 0.53 ng/mL

Question: What about the TNF-α (LTA 1.25 μg/ml, hBD2 1 μg/ml) of the same substance?
Answer: 0.65 ng/mL

Question: And the TNF-α (LTA 1.25 μg/ml, hBD2 10 μg/ml)?
Answer: 0.27 ng/mL

Question: What about the TNF-α (LTA 1.25 μg/ml, hBD2 100 μg/ml) of the same substance?
Answer: 0.21 ng/mL
